{"source": "patent US20260345526A1", "about": "“Amphenicol Adjuvant Improves Bioavailability and Efficacy” (priority 2023, published 2026)", "key": {"[1]": {"system": "P. salmonis", "assay": "Minimum inhibitory concentration of florfenicol on P. salmonis in infected SHK-1 cells", "assay_type": "cell-based", "procedure": "FIGS. 1 and 2. Cytotoxicity of andrographolide sodium bisulfite (PubChem CID: 133555830, “AP1”) and andrographolide sulphonate (PubChem CID: 72191954, “AP2”) in combination with florfenicol in SHK-1 cells treated and infected with P. salmonis. Cells were treated with AP1 (FIG. 1) and AP2 (FIG. 2) at 4.6 and 9 ng/mL and florfenicol in the range of 0,125; 0,250; 0.5 and […]. LDH analysis was done day 12 post-infection. Cells+Ps, cells infected without treatment; Vehicle+Ps, cells infected and treated with ethanol. “Flo sin AP” means florfenicol without an andrographolide; “Flo+AP” means florfenicol with an andrographolide. The percentage of cytotoxicity was calculated with respect to the control of total lysis of cells and the negative control (cells without treatment and infection) with the control florfenicol without AP. […] ANOVA y Fisher.\nThe effect of andrographolide on the antibiotic action of florfenicol, was corroborated by LDH in the supernatant in cells with different treatments showing the synergistic effect of andrographolide (AP) in the range of 0.125; 0.25 and 0.5 μg/mL of the antibiotic."}, "[2]": {"assay": "Florfenicol residue in muscle of coho salmon after treatment (Table 1)", "assay_type": "in vivo", "parameters": "florfenicol (residue): unit not given here", "settings": "for florfenicol (residue): florfenicol 20 mg/kg", "procedure": "Florfenicol (“FF”) was administered at a dose of 20 mg/kg at 15 days and at 30 days before harvesting. Andrographolide and seaweed powder were mixed with conventional fish feed at a dose of 1.056 kg seaweed powder and 0.044 kg andrographolide (“NATCONTROL”) per ton of feed. The NORMAL group corresponds to fish fed antibiotic without andrographolide.\nSo the farmer can treat with antibiotic closer to harvest, and harvested fish have far less antibiotic residue in their meat. […] This enables one to use a smaller dose of antibiotic to achieve the same effect. The residues of florfenicol at various days post-treatment indicate a more-rapid metabolization of florfenicol in fish muscle receiving andrographolide (<24 or not detected)."}, "[3]": {"assay": "Plasma concentration of florfenicol over time", "assay_type": "in vivo, coho salmon", "from_the_text": "FIG. 3. Plasma concentration of florfenicol over time: distribution of levels of plasma florfenicol. Y axis=Florfenicol plasma concentration (g/L). X axis=time (t=0, 5 days and 12 days). For each of the three days reported, the left bar is for fish treated with florfenicol alone, the right bar is for fish treated with florfenicol and also fed andrographolide.\n(§1) Odd-numbered cages received feed medicated with both florfenicol and with andrographolide (0.044 kg andrographolide per ton of feed) for 15 days. Even-numbered cages received feed medicated with only florfenicol. X Axis=day; Y axis (left)=accumulated mortality; Y axis (right)=periodic mortality. For each period, the left bar is florfenicol alone, the right bar is florfenicol and andrographolide. For cumulative mortality, the upper line (at date #5) is florfenicol alone, the lower line is florfenicol and andrographolide."}, "[4]": {"system": "coho salmon", "assay": "Mortality and cause of death in coho salmon", "assay_type": "in vivo", "from_the_text": "FIG. 4 measures accumulated mortality over 14 days for coho salmon treated with florfenicol alone and combined with andrographolide.\nas §1\nIn addition, it changes the causes of mortality. Table 2 compares the cause of death for the two groups."}, "[5]": {"system": "coho salmon", "assay": "Quality of the fish at harvest time", "assay_type": "in vivo", "from_the_text": "as §1\nTable 3 compares the quality of the fish at harvest time. Premium Quality (“PRM”) fish have an absence of skin lesions and adequate body weight. A total of 332,315 fish were treated with florfenicol+andrographolide (“Impares Nat Control”) and 301,334 fish were treated with florfenicol alone (“Pares Normal”)."}, "[6]": {"settings": "florfenicol combined with the andrographolide (AP1 or AP2)"}, "[7]": {"settings": "andrographolide co-fed with florfenicol, coho salmon"}, "[8]": {"settings": "absence of skin lesions and adequate body weight"}}, "note": "Where “and” joins values, the source holds several entries; their conditions need not be identical. Identical values can stand only once."}
{"compound": "C=C1CCC2[C@](C)(CO)[C@H](O)CC[C@@]2(C)[C@@H]1CC(C1C(=O)OC[C@H]1O)S(=O)(=O)[O-].[Na+]", "note": "(stereo partly shown) [AP1, andrographolide sodium bisulfite]", "values": [{"measurement": "minimum inhibitory concentration of florfenicol", "setting": "[1]; [6]", "value": 0.25, "unit": "µg/mL"}]}
{"compound": "C=C1CC[C@@H]2[C@](C)(CO)[C@H](O)CC[C@@]2(C)[C@@H]1C/C=C1/C(=O)OC[C@H]1O", "note": "[andrographolide]", "values": [{"measurement": "in vivo metabolism and clearance of florfenicol", "setting": "[2]; [7]", "value": "hastens the in vivo metabolism and clearance of florfenicol"}, {"measurement": "antibiotic (florfenicol) concentration in plasma", "setting": "[3]; [7]", "value": "increases antibiotic concentration in plasma"}, {"measurement": "average plasma florfenicol levels", "setting": "[3]; fish treated with florfenicol and fed andrographolide vs florfenicol alone, 5 and 12 days", "value": "higher average plasma florfenicol levels"}, {"measurement": "mortality", "setting": "[4]; andrographolide with florfenicol vs florfenicol alone", "value": "decreases mortality"}]}
{"compound": "CS(=O)(=O)c1ccc([C@@H](O)[C@@H](CF)NC(=O)C(Cl)Cl)cc1", "note": "[florfenicol]", "values": [{"measurement": "florfenicol (residue)", "setting": "[2]; Cage No. 101, andrographolide diet, Test Report No. 44.217-22", "value": "<24"}, {"measurement": "florfenicol (residue)", "setting": "[2]; Cage No. 102, normal diet (no andrographolide), Test Report No. 44.218-22", "value": "270 and 363 and 502"}, {"measurement": "florfenicol (residue)", "setting": "[2]; Cage No. 103, andrographolide diet, Test Report No. 44.215-22", "value": "<24"}, {"measurement": "residues of florfenicol in fish muscle", "setting": "[2]; fish receiving andrographolide, various days post-treatment", "value": "< 24"}, {"measurement": "FA fish, %", "setting": "[5]", "value": 4.65, "unit": "%"}, {"measurement": "FA fish, No", "setting": "[5]", "value": 14012, "unit": "No"}, {"measurement": "GA1 fish, %", "setting": "[5]", "value": 17.87, "unit": "%"}, {"measurement": "GA1 fish, No", "setting": "[5]", "value": 53835, "unit": "No"}, {"measurement": "GA2 fish, %", "setting": "[5]", "value": 1.426, "unit": "%"}, {"measurement": "GA2 fish, No", "setting": "[5]", "value": 4297, "unit": "No"}, {"measurement": "percentage of Premium Quality fish", "setting": "[5]", "value": 76.1, "unit": "%"}, {"measurement": "PRM (Premium Quality) fish, %", "setting": "[5]; [8]", "value": 76.06, "unit": "%"}, {"measurement": "PRM (Premium Quality) fish, No", "setting": "[5]; [8]", "value": 229190, "unit": "No"}, {"measurement": "minimum inhibitory concentration of florfenicol", "setting": "[1]; without andrographolide", "value": 0.5, "unit": "µg/mL"}, {"measurement": "Cause of death: Mechanical damage", "setting": "[4]; Example 3", "value": "41.6 % of Total Deaths"}, {"measurement": "Cause of death: No apparent cause", "setting": "[4]; Example 3", "value": "9.3 % of Total Deaths"}, {"measurement": "Cause of death: Runt (very small) fish", "setting": "[4]; Example 3", "value": "0 % of Total Deaths"}, {"measurement": "Cause of death: SRS (skin lesions)", "setting": "[4]; Example 3", "value": "25.0 % of Total Deaths"}, {"measurement": "Time of death: In holding pen before harvesting", "setting": "[4]; Example 3", "value": "10.9 % of Total Deaths"}]}
{"compound": "andrographolide sulphonate [AP2]", "values": [{"measurement": "minimum inhibitory concentration of florfenicol", "setting": "[1]; [6]", "value": 0.25, "unit": "µg/mL"}]}
